In the supplement of paper PMC10307832:

Legend:
Experiment in all cases: relative viability (nuclei count vs DMSO), 5 days (fraction); higher = more cells survive
[1] = compound: C[C@@H](N)c1ccc(C(=O)Nc2ccnc3[nH]ccc23)cc1 + CC(=O)c1c(C)c2cnc(Nc3ccc(N4CCNCC4)cn3)nc2n(C2CCCC2)c1=O [Palbociclib] (partner 0.5 µM)
How it was run: (§1)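 Relative viability is defined as nuclei in treated wells over nuclei in vehicle wells. Duplicate plates were run and medians reported. Lung cancer cell lines in 1536-well plates were dosed by pin tool one day after seeding, with one drug or with a fixed anchor-drug dose plus five library-drug doses (not always all listed) in √10 steps, and nuclei were counted after 5 days.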

[2] = compound: C[C@@H](N)c1ccc(C(=O)Nc2ccnc3[nH]ccc23)cc1 + C[C@]1(O)C[C@@H](c2nc(-c3ccc4ccc(-c5ccccc5)nc4c3)c3c(N)nccn32)C1 [Linsitinib] (partner 1 µM)
How it was run: as §1

[3] = compound: C[C@@H](N)c1ccc(C(=O)Nc2ccnc3[nH]ccc23)cc1 + O=C(CCCCCCC(=O)Nc1ccccc1)NO [Vorinostat] (partner 1 µM)
How it was run: as §1

[4] = compound: O[C@H]1CC[C@H](Nc2ncc3nc(Nc4c(F)cc(F)cc4F)n([C@H]4CCOC4)c3n2)CC1 [Tanzisertib] + C[C@]1(O)C[C@@H](c2nc(-c3ccc4ccc(-c5ccccc5)nc4c3)c3c(N)nccn32)C1 [Linsitinib] (partner 1 µM)
How it was run: as §1

Cell Line: NCI-H23
- relative viability ([1]; first compound 0.04 µM): 0.532
- relative viability ([1]; first compound 0.1265 µM): 0.644
- relative viability ([1]; first compound 0.4 µM): 0.545
- relative viability ([1]; first compound 4 µM): 0.441
- relative viability ([2]; first compound 0.04 µM): 0.665
- relative viability ([2]; first compound 0.1265 µM): 0.641
- relative viability ([2]; first compound 0.4 µM): 0.779
- relative viability ([2]; first compound 4 µM): 0.519
- relative viability ([3]; first compound 0.04 µM): 0.638
- relative viability ([3]; first compound 0.1265 µM): 0.577
- relative viability ([3]; first compound 0.4 µM): 0.846
- relative viability ([3]; first compound 4 µM): 0.658
- relative viability ([4]; first compound 0.08 µM): 0.614
- relative viability ([4]; first compound 0.253 µM): 0.497
- relative viability ([4]; first compound 0.8 µM): 0.535
- relative viability ([4]; first compound 2.53 µM): 0.627
- relative viability ([4]; first compound 8 µM): 0.638

Cell Line: SW 900
- relative viability ([1]; first compound 0.04 µM): 0.564
- relative viability ([1]; first compound 0.1265 µM): 0.607
- relative viability ([1]; first compound 0.4 µM): 0.547
- relative viability ([1]; first compound 1.265 µM): 0.581
- relative viability ([1]; first compound 4 µM): 0.611
- relative viability ([3]; first compound 0.04 µM): 0.716
- relative viability ([3]; first compound 0.1265 µM): 0.54
- relative viability ([3]; first compound 0.4 µM): 0.738
- relative viability ([3]; first compound 1.265 µM): 0.884
- relative viability ([3]; first compound 4 µM): 0.877

Cell Line: NCI-H1299
- relative viability ([2]; first compound 0.04 µM): 0.945
- relative viability ([2]; first compound 0.1265 µM): 0.977
- relative viability ([2]; first compound 0.4 µM): 0.939
- relative viability ([2]; first compound 1.265 µM): 0.956
- relative viability ([2]; first compound 4 µM): 0.85
- relative viability ([4]; first compound 0.08 µM): 1.16
- relative viability ([4]; first compound 0.253 µM): 0.976
- relative viability ([4]; first compound 0.8 µM): 1.02
- relative viability ([4]; first compound 2.53 µM): 1.09
- relative viability ([4]; first compound 8 µM): 1.06

Cell Line: NCI-H1563
- relative viability ([2]; first compound 0.04 µM): 1.25
- relative viability ([2]; first compound 0.1265 µM): 1.16
- relative viability ([2]; first compound 0.4 µM): 1.14
- relative viability ([2]; first compound 1.265 µM): 1.13
- relative viability ([2]; first compound 4 µM): 1.27
- relative viability ([4]; first compound 0.08 µM): 1.28
- relative viability ([4]; first compound 0.253 µM): 1.12
- relative viability ([4]; first compound 0.8 µM): 1.2
- relative viability ([4]; first compound 2.53 µM): 1.24
- relative viability ([4]; first compound 8 µM): 1.16

Cell Line: NCI-H1650
- relative viability ([1]; first compound 0.04 µM): 0.384
- relative viability ([1]; first compound 0.1265 µM): 0.369
- relative viability ([1]; first compound 0.4 µM): 0.319
- relative viability ([1]; first compound 1.265 µM): 0.294
- relative viability ([1]; first compound 4 µM): 0.344
- relative viability ([3]; first compound 0.04 µM): 0.7
- relative viability ([3]; first compound 0.1265 µM): 0.663
- relative viability ([3]; first compound 0.4 µM): 0.675
- relative viability ([3]; first compound 1.265 µM): 0.663
- relative viability ([3]; first compound 4 µM): 0.648

Cell Line: NCI-H596
- relative viability ([2]; first compound 0.04 µM): 1.06
- relative viability ([2]; first compound 0.1265 µM): 1.05
- relative viability ([2]; first compound 0.4 µM): 1.22
- relative viability ([2]; first compound 1.265 µM): 1.09
- relative viability ([2]; first compound 4 µM): 1.01
- relative viability ([3]; first compound 0.04 µM): 0.596
- relative viability ([3]; first compound 0.1265 µM): 0.517
- relative viability ([3]; first compound 0.4 µM): 0.583
- relative viability ([3]; first compound 1.265 µM): 0.654
- relative viability ([3]; first compound 4 µM): 0.582
- relative viability ([4]; first compound 0.08 µM): 1.19
- relative viability ([4]; first compound 0.253 µM): 0.956
- relative viability ([4]; first compound 0.8 µM): 1.11
- relative viability ([4]; first compound 2.53 µM): 1.12
- relative viability ([4]; first compound 8 µM): 1.02

Cell Line: Calu-6
- relative viability ([2]; first compound 0.04 µM): 0.757
- relative viability ([2]; first compound 0.1265 µM): 0.952
- relative viability ([2]; first compound 0.4 µM): 0.984
- relative viability ([2]; first compound 1.265 µM): 0.922
- relative viability ([2]; first compound 4 µM): 0.839
- relative viability ([4]; first compound 0.08 µM): 1.09
- relative viability ([4]; first compound 0.253 µM): 0.862
- relative viability ([4]; first compound 0.8 µM): 0.957
- relative viability ([4]; first compound 2.53 µM): 1.02
- relative viability ([4]; first compound 8 µM): 0.928

Cell Line: NCI-H1703
- relative viability ([2]; first compound 0.04 µM): 0.695
- relative viability ([2]; first compound 0.1265 µM): 0.964
- relative viability ([2]; first compound 0.4 µM): 0.54
- relative viability ([2]; first compound 4 µM): 0.536
- relative viability ([4]; first compound 0.08 µM): 1.03
- relative viability ([4]; first compound 0.253 µM): 0.674
- relative viability ([4]; first compound 0.8 µM): 0.787
- relative viability ([4]; first compound 2.53 µM): 0.316
- relative viability ([4]; first compound 8 µM): 0.546

Cell Line: EBC-1
- relative viability ([2]; first compound 0.04 µM): 1.07
- relative viability ([2]; first compound 0.1265 µM): 0.873
- relative viability ([2]; first compound 0.4 µM): 0.961
- relative viability ([2]; first compound 1.265 µM): 1.05
- relative viability ([2]; first compound 4 µM): 0.86
- relative viability ([4]; first compound 0.08 µM): 1.29
- relative viability ([4]; first compound 0.253 µM): 0.876
- relative viability ([4]; first compound 0.8 µM): 0.846
- relative viability ([4]; first compound 2.53 µM): 0.899
- relative viability ([4]; first compound 8 µM): 0.783

Cell Line: NCI-H2342
- relative viability ([1]; first compound 0.04 µM): 0.513
- relative viability ([1]; first compound 0.1265 µM): 0.53
- relative viability ([1]; first compound 0.4 µM): 0.596
- relative viability ([1]; first compound 1.265 µM): 0.498
- relative viability ([1]; first compound 4 µM): 0.532
- relative viability ([3]; first compound 0.04 µM): 0.772
- relative viability ([3]; first compound 0.1265 µM): 0.744
- relative viability ([3]; first compound 0.4 µM): 0.704
- relative viability ([3]; first compound 1.265 µM): 0.869
- relative viability ([3]; first compound 4 µM): 0.731

Cell Line: ChaGo-K-1
- relative viability ([1]; first compound 0.04 µM): 0.923
- relative viability ([1]; first compound 0.1265 µM): 0.908
- relative viability ([1]; first compound 0.4 µM): 0.947
- relative viability ([1]; first compound 1.265 µM): 0.893
- relative viability ([1]; first compound 4 µM): 0.865
- relative viability ([3]; first compound 0.04 µM): 0.702
- relative viability ([3]; first compound 0.1265 µM): 0.751
- relative viability ([3]; first compound 0.4 µM): 0.743
- relative viability ([3]; first compound 1.265 µM): 0.555
- relative viability ([3]; first compound 4 µM): 0.676

Cell Line: NCI-H1648
- relative viability ([1]; first compound 0.04 µM): 0.267
- relative viability ([1]; first compound 0.1265 µM): 0.34
- relative viability ([1]; first compound 0.4 µM): 0.279
- relative viability ([1]; first compound 1.265 µM): 0.371
- relative viability ([1]; first compound 4 µM): 0.414
- relative viability ([3]; first compound 0.04 µM): 0.623
- relative viability ([3]; first compound 0.1265 µM): 0.81
- relative viability ([3]; first compound 0.4 µM): 0.754
- relative viability ([3]; first compound 1.265 µM): 0.952
- relative viability ([3]; first compound 4 µM): 0.899

Cell Line: NCI-H522
- relative viability ([1]; first compound 0.04 µM): 1.03
- relative viability ([1]; first compound 0.1265 µM): 0.986
- relative viability ([1]; first compound 0.4 µM): 1.1
- relative viability ([1]; first compound 1.265 µM): 1.02
- relative viability ([1]; first compound 4 µM): 0.874
- relative viability ([3]; first compound 0.04 µM): 0.921
- relative viability ([3]; first compound 0.1265 µM): 0.907
- relative viability ([3]; first compound 0.4 µM): 0.892
- relative viability ([3]; first compound 1.265 µM): 0.913
- relative viability ([3]; first compound 4 µM): 0.753

Cell Line: A549
- relative viability ([2]; first compound 0.04 µM): 0.674
- relative viability ([2]; first compound 0.1265 µM): 0.666
- relative viability ([2]; first compound 0.4 µM): 0.726
- relative viability ([2]; first compound 1.265 µM): 0.775
- relative viability ([2]; first compound 4 µM): 0.619
- relative viability ([4]; first compound 0.08 µM): 0.736
- relative viability ([4]; first compound 0.253 µM): 0.551
- relative viability ([4]; first compound 0.8 µM): 0.703
- relative viability ([4]; first compound 2.53 µM): 0.623
- relative viability ([4]; first compound 8 µM): 0.533
